# Measurements: ChEMBL document CHEMBL2074132, “Functional characterization of the hepatic sodium-dependent taurocholate transporter stably transfected into an immortalized liver-derived cell line and V79 fibroblasts” (Eur J Cell Biol, 1996)
# What was measured:
# Type in all cases: functional, cell-based
# [1] = target: T1, Hepatic sodium/bile acid cotransporter (Rattus norvegicus, UniProt P26435); assay: TP_TRANSPORTER: uptake in Ntcp-expressing HPCT-1E3 cells
# T1 sequence (P26435 whole entry): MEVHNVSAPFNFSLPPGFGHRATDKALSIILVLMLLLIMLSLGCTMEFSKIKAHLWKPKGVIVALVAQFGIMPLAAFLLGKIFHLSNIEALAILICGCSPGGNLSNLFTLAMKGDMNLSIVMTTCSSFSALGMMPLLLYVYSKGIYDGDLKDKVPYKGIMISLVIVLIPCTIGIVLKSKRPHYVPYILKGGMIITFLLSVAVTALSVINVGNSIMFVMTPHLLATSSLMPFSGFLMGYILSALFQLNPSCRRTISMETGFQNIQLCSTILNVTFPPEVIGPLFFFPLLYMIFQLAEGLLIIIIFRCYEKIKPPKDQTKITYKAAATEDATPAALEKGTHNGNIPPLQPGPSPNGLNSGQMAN
# [2] = target: T1, Hepatic sodium/bile acid cotransporter; assay: TP_TRANSPORTER: inhibition of Taurocholate uptake (Taurocholate: 10 uM, GC: 100 uM) in Ntcp-expressing HPCT-1E3 cells; details: hpct-1e3, 100 µM
# [3] = target: T1, Hepatic sodium/bile acid cotransporter; assay: TP_TRANSPORTER: inhibition of Taurocholate uptake (Taurocholate: 10 uM, Oligomycin: 0.01mg/mL) in Ntcp-expressing HPCT-1E3 cells
Activity [1],Structure (SMILES),Activity [2],Activity [3]
is not a substrate [-],CCCCNc1cc(C(=O)O)cc(S(N)(=O)=O)c1Oc1ccccc1 [BUMETANIDE],,
is not a substrate [-],C[C@H](CCC(=O)NCC(=O)O)[C@H]1CC[C@H]2[C@@H]3[C@H](O)C[C@@H]4C[C@H](O)CC[C@]4(C)[C@H]3C[C@H](O)[C@]12C [GLYCOCHOLIC ACID],inhibitor [(at a rough estimate) 60 % of control],
,CC[C@H]1/C=C/C=C/C[C@@H](C)[C@H](O)[C@@](C)(O)C(=O)[C@@H](C)[C@H](O)[C@@H](C)C(=O)[C@@H](C)[C@H](O)[C@@H](C)/C=C/C(=O)O[C@@H]2[C@H](C)[C@H](CC1)O[C@]1(CC[C@H](C)[C@H](C[C@@H](C)O)O1)[C@H]2C [OLIGOMYCIN],,inhibitor [(at a rough estimate) 10 % of control]
